{"source": "patent US7977366B2", "about": "“Treating an inflammatory disorder or inhibiting respiratory burst in adherent neutrophils with chemical inhibitors of neutrophil activation” (Cornell Research Foundation, Inc., priority 2003, dated 2011)", "key": {"[1]": {"system": "Pyk2", "test": "TNF-induced phosphorylation of Pyk2 Y402 in neutrophils (western blot)", "assay_type": "cell-based, human", "method": "Tissue culture plates (Primaria, Falcon) were coated with 3 ml of FBS in 5% CO2 at 37° C. for at least 1 h and washed twice with 0.9% saline. Isolated human neutrophils (1.5×10^6) were added to each plate containing 4 ml of reaction mixture, incubated with each compound at 37° C. for 30 min, and stimulated with either buffer control or TNF (100 ng/ml). When cells were fully spread (20-40 min), they were treated with 5 mM diisopropylfluorophosphate to inhibit serine proteases and lysed with either 125 μl of SDS lysis buffer (10 mM Tris-HCl, pH 7.6, 150 mM NaCl, 1% SDS, 1 mM PMSF, 1 mM Na pyrophosphate, 1 mM NaF, 1 mM vanadate, 5 μg/ml each of aprotinin, leupeptin, chymostatin, pepstatin A) for western blot, or with 200 μl of non-denaturing modified RIPA buffer (10 mM Tris-HCl, pH 7.6, 150 mM NaCl, 1% Triton-X100, 1 mM PMSF, 1 mM Na pyrophosphate, 1 mM NaF, 1 mM vanadate, 5 μg/ml each of aprotinin, leupeptin, chymostatin, pepstatin A) for immunoprecipitation. The cell lysate was passed through a 26-gauge needle six times to shear DNA and centrifuged at 20,000×g for 15 min to remove cell debris and DNA. The protein concentration was determined using a Bio-Rad (Indianapolis, Ind.) kit. […] After further washing with TBST, bound antibody was detected by enhanced chemiluminescence (Pierce ECL, Amersham Pharmacia, Piscataway, N.J.). […]"}, "[2]": {"system": "human neutrophils", "test": "Reversibility of inhibition of TNF triggered respiratory burst after washing", "assay_type": "cell-based", "settings": "washed twice with cold KRPG before TNF 100 ng/ml", "method": "Neutrophils were incubated with test compounds I-V or DMSO at 37° C. for 30 min in FBS coated tubes (Falcon, Cat. Number 352063), washed twice with cold KRPG, and plated in 96 well plates before stimulation with TNF (100 ng/ml) or an equivalent volume of KRPG buffer as a control. On a separate plate, compounds were added back to the neutrophils that were washed off compounds, and cells were stimulated to ensure neutrophils' capacity to respond. Neutrophils incubated with each compound without washing were also stimulated for comparison."}, "[3]": {"system": "p47phox", "test": "Translocation of p47phox subunit to the cell membrane (western blot of membrane fraction)", "assay_type": "cell-based, human", "settings": "TNF or PMA stimulation", "from_the_text": "In an attempt to identify specific steps of the biochemical pathway(s) that are influenced by Comp II, the effect on translocation of phagocyte oxidase (Phox) translocation was examined. Phox is a multi-subunit enzyme complex that generates H2O2 upon activation. Activation of Phox requires an assembly of both membrane associated and cytosolic subunits at the plasma or phagosomal membrane as well as phosphorylation of several subunits. The cytochrome b559 (also known as b558) components of phox (gp91 and gp22) are localized on the membranes of specific granules (Bjerrum et al, “Dual Granule Localization of the Dormant NADPH Oxidase and Cytochrome b559 in Human Neutrophils,” Eur J Haematol 43(1): 67-77 (1989), which is hereby incorporated by reference in its entirety), and recruitment of these subunits to the membrane occurs simultaneously with degranulation. […] The influence of Comp II on the translocation of p47phox subunit, one of the components of NADPH oxidase, to the cell membrane, was examined as follows.\nNeutrophil lysates were prepared as above with 2.5% TritonX-100 lysis buffer (final concentration of 1% TritonX-100 after dilution in plate with residual KRPG). The cell lysate was passed through 26-gauge needle six times to shear DNA and centrifuged at 20,000×g for 15 min to remove cell debris and DNA. […]"}, "[4]": {"system": "human neutrophils", "test": "Killing of bacteria by neutrophils", "assay_type": "cell-based"}}}
{"smiles": "O=C1CC(c2ccccc2)=NN1c1cccc(Cl)c1", "note": "[Comp II, 2-(3-Chloro-phenyl)-5-phenyl-2,4-dihydro-pyrazol-3-one]", "values": [{"measurement": "TNF-induced phosphorylation of Pyk2 Y402 (activation of Pyk2)", "setting": "[1]", "value": "did not block"}, {"measurement": "reversibility of inhibition of TNF triggered respiratory burst", "setting": "[2]", "value": "greatest reversibility"}, {"measurement": "activation triggered translocation of phox 47 to the membrane", "setting": "[3]", "value": "not inhibited"}, {"measurement": "bacterial killing ability of PMNs (general statement)", "setting": "[4]", "value": "sparing"}]}
